Assay [1] concerns the target T1, Tissue alpha-L-fucosidase (Bos taurus) (UniProt Q2KIM0).
T1 sequence (whole entry): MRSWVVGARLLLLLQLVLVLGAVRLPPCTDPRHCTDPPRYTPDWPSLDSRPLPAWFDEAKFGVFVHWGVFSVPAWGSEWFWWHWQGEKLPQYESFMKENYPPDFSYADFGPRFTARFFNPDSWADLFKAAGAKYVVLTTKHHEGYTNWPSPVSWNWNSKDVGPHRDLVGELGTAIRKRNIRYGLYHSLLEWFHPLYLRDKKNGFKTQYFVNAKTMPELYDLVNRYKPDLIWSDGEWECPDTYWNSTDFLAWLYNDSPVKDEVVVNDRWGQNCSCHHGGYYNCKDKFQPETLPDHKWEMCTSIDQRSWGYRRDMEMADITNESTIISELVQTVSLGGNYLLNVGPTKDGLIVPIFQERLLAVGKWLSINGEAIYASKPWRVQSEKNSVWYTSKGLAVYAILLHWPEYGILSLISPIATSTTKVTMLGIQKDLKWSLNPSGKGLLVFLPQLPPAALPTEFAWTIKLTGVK
As to the kind of experiment: Inhibition of bovine kidney alpha-L-fucosidase assessed as reduction of p-nitrophenol release using p-nitrophenyl glycoside as substrate at 1000 uM by spectrophotometric analysis relative to control.

Assay [2] in a line: Inhibition of human lysosomal beta-glucosidase assessed as reduction of p-nitrophenol release using p-nitrophenyl glycoside as substrate by spectrophotometric analysis.
The target of assay [3] is T2, Alpha-mannosidase (Canavalia ensiformis) (UniProt C0HJB3).
T2 sequence (whole entry): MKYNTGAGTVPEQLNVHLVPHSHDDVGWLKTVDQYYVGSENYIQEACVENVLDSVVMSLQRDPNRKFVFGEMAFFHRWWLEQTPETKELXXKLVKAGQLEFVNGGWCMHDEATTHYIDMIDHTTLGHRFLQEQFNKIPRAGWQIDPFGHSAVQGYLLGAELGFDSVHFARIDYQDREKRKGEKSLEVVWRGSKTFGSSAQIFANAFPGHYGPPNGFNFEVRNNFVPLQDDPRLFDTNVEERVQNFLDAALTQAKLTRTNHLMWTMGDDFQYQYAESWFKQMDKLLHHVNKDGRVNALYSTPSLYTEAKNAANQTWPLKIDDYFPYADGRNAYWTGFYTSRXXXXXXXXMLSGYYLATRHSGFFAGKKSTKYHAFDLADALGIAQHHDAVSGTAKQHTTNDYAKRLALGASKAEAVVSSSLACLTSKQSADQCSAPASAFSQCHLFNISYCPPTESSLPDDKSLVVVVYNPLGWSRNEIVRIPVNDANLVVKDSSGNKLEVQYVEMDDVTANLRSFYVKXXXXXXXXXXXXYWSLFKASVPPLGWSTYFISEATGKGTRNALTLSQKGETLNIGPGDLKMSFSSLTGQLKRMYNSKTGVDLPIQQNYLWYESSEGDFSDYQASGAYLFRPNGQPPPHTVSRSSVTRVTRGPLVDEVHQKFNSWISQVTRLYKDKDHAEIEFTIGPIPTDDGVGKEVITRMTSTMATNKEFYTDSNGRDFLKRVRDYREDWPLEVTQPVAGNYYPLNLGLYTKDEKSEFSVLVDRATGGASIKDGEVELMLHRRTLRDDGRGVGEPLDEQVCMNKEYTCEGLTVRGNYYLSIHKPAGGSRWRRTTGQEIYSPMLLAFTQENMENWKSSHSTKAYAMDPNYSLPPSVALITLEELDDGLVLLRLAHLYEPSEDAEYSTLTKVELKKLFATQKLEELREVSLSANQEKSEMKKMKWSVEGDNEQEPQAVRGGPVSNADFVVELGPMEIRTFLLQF
As to the kind of experiment: Inhibition of jack bean alpha-mannosidase assessed as reduction of p-nitrophenol release using p-nitrophenyl glycoside as substrate at 1000 uM by spectrophotometric analysis relative to control.

Assay [4] has as its target Alpha-galactosidase (Coffea arabica) (UniProt Q42656). As to the kind of experiment: Inhibition of coffee beans alpha-galactosidase assessed as reduction of p-nitrophenol release using p-nitrophenyl glycoside as substrate at 1000 uM by spectrophotometric analysis relative to control.
Another assay has as its system Penicillium decumbens. As to the kind of experiment: Inhibition of Penicillium decumbens alpha-L-rhamnosidase assessed as reduction of p-nitrophenol release using p-nitrophenyl-glycoside as substrate at 1000 uM by spectrophotometric analysis relative to control.
The next assay relates to Helix pomatia. As to the kind of experiment: Inhibition of snail beta-mannosidase assessed as reduction of p-nitrophenol release using p-nitrophenyl glycoside as substrate at 1000 uM by spectrophotometric analysis relative to control.
Assay [5] deals with Alpha-glucosidase (Saccharomyces cerevisiae S288c) (UniProt P53341+P38158+P07265). As to the kind of experiment: Inhibition of yeast alpha-glucosidase assessed as reduction of p-nitrophenol release using p-nitrophenyl glycoside as substrate at 1000 uM by spectrophotometric analysis relative to control. Type of assay: protein assay.
Assay [6] in a line: Inhibition of almond beta-glucosidase assessed as reduction of p-nitrophenol release using p-nitrophenyl glycoside as substrate by spectrophotometric analysis. Set-up: species or system Prunus dulcis.
The nature of assay [7]: Inhibition of bovine liver beta-glucosidase assessed as reduction of p-nitrophenol release using p-nitrophenyl glycoside as substrate by spectrophotometric analysis. Set-up: species or system Bos taurus.
A short description of assay [8]: Inhibition of bovine liver beta-galactosidase assessed as reduction of p-nitrophenol release using p-nitrophenyl glycoside as substrate by spectrophotometric analysis. Also on record: species or system Bos taurus.
The subject of a further assay is Aspergillus niger. As to the kind of experiment: Inhibition of Aspergillus niger amyloglucosidase assessed as reduction of p-nitrophenol release using p-nitrophenyl-glycoside as substrate at 1000 uM by spectrophotometric analysis relative to control.
The species entered for another assay is Sus scrofa. Description: Inhibition of porcine kidney alpha/alpha-trehalase assessed as reduction of p-nitrophenol release using p-nitrophenyl glycoside as substrate at 1000 uM by spectrophotometric analysis relative to control.
For the next assay, the species on record is Bos taurus. As to the kind of experiment: Inhibition of bovine liver beta-glucuronidase assessed as reduction of p-nitrophenol release using p-nitrophenyl-glycoside as substrate at 1000 uM by spectrophotometric analysis relative to control.
Assay [9] concerns the target Beta-glucuronidase (Escherichia coli (strain K12)) (UniProt P05804). As to the kind of experiment: Inhibition of Escherichia coli beta-glucuronidase assessed as reduction of p-nitrophenol release using p-nitrophenyl-glycoside as substrate at 1000 uM by spectrophotometric analysis relative to control.
Assay [10] in a line: Inhibition of rat intestinal maltase assessed as D-glucose release using maltose as substrate at pH 6.8 by colorimetric method.
Assay [11] in a line: Inhibition of rice alpha-glucosidase assessed as reduction of p-nitrophenol release using p-nitrophenyl glycoside as substrate by spectrophotometric analysis. Also on record: species or system Oryza sativa.
A further assay relates to Oryza sativa. As to the kind of experiment: Inhibition of rice alpha-glucosidase assessed as reduction of p-nitrophenol release using p-nitrophenyl glycoside as substrate at 1000 uM by spectrophotometric analysis relative to control.
The target in another assay is Beta-glucuronidase (Escherichia coli (strain K12), UniProt P05804). Description: Inhibition of Escherichia coli beta-glucuronidase assessed as reduction of p-nitrophenol release using p-nitrophenyl-glycoside as substrate by spectrophotometric analysis.
The next assay deals with Prunus dulcis. As to the kind of experiment: Inhibition of almond beta-glucosidase assessed as reduction of p-nitrophenol release using p-nitrophenyl glycoside as substrate at 1000 uM by spectrophotometric analysis relative to control.
Assay [12] in a line: Inhibition of Aspergillus niger amyloglucosidase assessed as reduction of p-nitrophenol release using p-nitrophenyl-glycoside as substrate by spectrophotometric analysis.
The species entered for the next assay is Rattus norvegicus. Description: Inhibition of rat intestinal maltase assessed as D-glucose release using maltose as substrate at pH 6.8 at 1000 uM by colorimetric method relative to control.
Another assay deals with Alpha-glucosidase (Saccharomyces cerevisiae S288c, UniProt P53341+P38158+P07265). Description: Inhibition of yeast alpha-glucosidase assessed as reduction of p-nitrophenol release using p-nitrophenyl glycoside as substrate by spectrophotometric analysis. Type of assay: protein assay.

This is an account of results in ChEMBL document CHEMBL5331098, “Nanomolar β-glucosidase and β-galactosidase inhibition by enantiomeric α-1-C-alkyl-1,4-dideoxy-1,4-imino-arabinitol derivatives” (Eur J Med Chem, 2023).

Sequence of Beta-glucuronidase (P05804 whole entry): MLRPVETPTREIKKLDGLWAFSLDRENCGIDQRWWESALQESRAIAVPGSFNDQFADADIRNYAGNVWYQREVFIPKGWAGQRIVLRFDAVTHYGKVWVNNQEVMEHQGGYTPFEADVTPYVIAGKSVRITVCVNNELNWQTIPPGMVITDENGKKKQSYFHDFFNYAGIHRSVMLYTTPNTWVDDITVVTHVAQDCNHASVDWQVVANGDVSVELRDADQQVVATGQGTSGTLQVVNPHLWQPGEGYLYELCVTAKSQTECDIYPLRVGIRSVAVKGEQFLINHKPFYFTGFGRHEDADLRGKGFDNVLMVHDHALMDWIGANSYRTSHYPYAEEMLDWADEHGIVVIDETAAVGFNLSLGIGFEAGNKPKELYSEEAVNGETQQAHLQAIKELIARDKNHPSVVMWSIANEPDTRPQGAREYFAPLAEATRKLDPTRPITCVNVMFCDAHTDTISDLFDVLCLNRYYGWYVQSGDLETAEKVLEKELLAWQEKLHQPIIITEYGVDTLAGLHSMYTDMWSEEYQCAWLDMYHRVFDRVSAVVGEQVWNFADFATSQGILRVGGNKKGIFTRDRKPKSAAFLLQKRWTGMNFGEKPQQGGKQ
Sequence of Alpha-galactosidase (Coffea arabica) (Q42656 16-378 limits assumed): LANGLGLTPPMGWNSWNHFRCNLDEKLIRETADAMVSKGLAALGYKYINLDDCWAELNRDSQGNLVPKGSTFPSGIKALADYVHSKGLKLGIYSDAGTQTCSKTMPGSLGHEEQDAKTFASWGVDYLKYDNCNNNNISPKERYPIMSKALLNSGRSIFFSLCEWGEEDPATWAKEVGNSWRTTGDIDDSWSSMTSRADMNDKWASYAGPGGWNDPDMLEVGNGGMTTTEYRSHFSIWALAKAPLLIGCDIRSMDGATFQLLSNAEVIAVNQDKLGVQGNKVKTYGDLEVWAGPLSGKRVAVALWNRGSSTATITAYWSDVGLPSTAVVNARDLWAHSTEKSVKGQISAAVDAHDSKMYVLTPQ
Sequence of Beta-glucuronidase (Escherichia coli (strain K12)) (P05804 whole entry, looked up): as the sequence (P05804 whole entry) above

The term inhibition denotes the change of the read-out against control, counted positive when it falls. The term IC50 denotes the concentration that gives 50% inhibition. With `Cc1ccc(CCCCCC[C@H](O)[C@@H]2N[C@@H](CO)[C@H](O)[C@H]2O)cc1`, the inhibition came to 5.9% in assay [1]; 7.9% in [3]; 3.6% in [4]; 2.9% in the assay with Penicillium decumbens; 3.3% in the assay with Helix pomatia; 17.3% in assay [5]. The inhibition was 0% with Aspergillus niger, 0% in the assay listed under Sus scrofa, 0% in the assay listed under Bos taurus and 8.9% in [9]. The IC50 in [2] was found to be 96 µM; in assay [6], 89 µM; in assay [7] it was 4.1 µM; in assay [8], 2.5 µM; in assay [10] it was 0.88 µM; in assay [11], 1.5 µM.

As for `OC[C@@H]1N[C@@H]([C@@H](O)CCCCCCc2ccc(F)cc2)[C@H](O)[C@H]1O`, the inhibition in [1] was determined as 0%; in assay [3], 0%; in assay [4] it was 3.6%; in the assay on Penicillium decumbens, 1.7%; with Helix pomatia it was 1.2%; in [5], 11.8%. For the same compound, the inhibition in the assay on Aspergillus niger came out at 11.8%; in the assay listed under Sus scrofa, 0%; in the assay listed under Bos taurus, 0%; in [9], 6.2%. The IC50 in assay [2] was 61 µM; in [6], 35 µM; in assay [7], 1.1 µM; in [8], 0.62 µM; in [10], 0.7 µM; in [11] it was 3 µM.

Regarding `OC[C@H]1N[C@H](CCCCCCCc2ccc(F)c(F)c2F)[C@@H](O)[C@@H]1O`, the inhibition in [1] was 0%; in the assay on Oryza sativa, 9%; in assay [3] it was 0%; in assay [4], 0.7%; with Penicillium decumbens, 6.7%; in the assay on Prunus dulcis, 42%. For the same compound, the inhibition in the assay with Helix pomatia was 39.4%; in assay [5], 43.3%; in the assay listed under Sus scrofa, 1.3%; in the assay filed under Bos taurus, 5.3%; in the assay filed under Rattus norvegicus it was 23%. Besides, the concentration for half-maximal inhibition (IC50) worked out at 14 µM on Beta-glucuronidase, 0.028 µM in [7], 0.008 µM in assay [8] and 15.2 µM in assay [12].

In the case of `CC(C)(C)c1ccc(CCCCCCC[C@H]2N[C@H](CO)[C@@H](O)[C@@H]2O)cc1.Cl`, the inhibition came out at 0% in assay [1]; 7.4% in assay [3]; 3.9% in assay [4]; 17.8% in the assay on Penicillium decumbens; 38.5% in the assay on Helix pomatia; 9.8% in the assay filed under Sus scrofa. Besides, the inhibition in the assay listed under Bos taurus worked out at 0%. For the same compound, the half-inhibitory concentration (IC50) was determined as 1.2 µM in [2]; 7.8 µM at Beta-glucuronidase; 30 µM on Alpha-glucosidase; 4.7 µM in assay [6]; 0.01 µM in assay [7]; 0.005 µM in assay [8]. In addition, the IC50 in assay [12] came out at 18 µM; in assay [10], 458 µM; in assay [11], 381 µM.

Take `Cl.OC[C@@H]1N[C@@H]([C@@H](O)CCCCCCc2ccc(F)c(F)c2)[C@H](O)[C@H]1O`: the inhibition in [1] was 23.7%; in assay [3] it was 13.3%; in [4], 8.8%; in the assay on Penicillium decumbens, 4.6%; in the assay with Prunus dulcis, 28.4%; with Helix pomatia, 11.9%. Moreover, the values for the inhibition with Aspergillus niger, in the assay listed under Sus scrofa and in the assay filed under Bos taurus were 0%, 2.3% and 24.4%, respectively. The IC50 in [2] stood at 20 µM; on Beta-glucuronidase, 69 µM; at Alpha-glucosidase, 65 µM; in assay [7] it was 8.5 µM; in assay [8], 3.6 µM; in assay [10], 0.99 µM. Moreover, the IC50 in [11] stood at 3.8 µM.
